Like-named read-outs stand apart in the source and are kept apart here.
Assays:
[1] = test system: Human promyeloid leukemia HL-60 cells; experiment: Cytotoxicity Assays Method B (MTT proliferation assay), HL-60; assay type: cell-based; settings: Homo sapiens, read-out: IC50 (concentration at which 50% of the cells are inhibited from growing)
Protocol: Cytotoxicity Assays Method B (HL-60) [H. M. Chen et al. Chin. Pharm. J. 53, 157-167 (2001)]
Human promyeloid leukemia HL-60 cells were obtained from the American Type
Culture Collection (Manassas, Va., USA) and the Culture Collection and Research Center(CCRC) (Tai wan, ROC). Human promyeloid leukemia HL-60 cells were cultured in suspension in RPMI-1640 medium (GIBCO, Grand Is land, USA), containing 10% fetal bovine se rum (GIBCO, Grand Is land, USA), 100 unit/mL penicillin, […] streptomycin and 1% L-glutamine at 37° C. in a humidified atmosphere of 5% CO2 in air. Cells were split every day to maintain the cell numbers between 2−5×10^5/mL. Cell numbers were assessed by the standard procedure of leukocyte counting using a hemocytometer and cell viability was checked by the ability of cells to exclude Trypan blue.
Cellular proliferation was determined by the MTT [3-(4,5-dimethylthiazol-2-yl)-2,5-diphenyltetrazolium bromide] as say. Briefly, […] of MTT (5 mg/mL) was added to each well of 96-well plates containing 1×10^5 cells after treatment with different concentrations of samples for 4 days. The reaction was stopped after 2 h by adding […] of 0.04 N HCl in isopropanol and the OD570 nm was determined by a minicolorimetric reader. Each concentration treatment was performed in triplicate.

[2] = test system: epidermoid carcinoma of the nasopharynx (KB); experiment: Cytotoxicity Assays Method C, KB; assay type: cell-based; settings: 72 h, read-out: IC50 KB
[3] = test system: p-gp-expressing epidermoid carcinoma of the nasopharynx (KB-VIN); experiment: Cytotoxicity Assays Method C, KB-VIN; assay type: cell-based; settings: for IC50: 50% reduction in cell number after 72 hr of incubation
From the text: Cytotoxicity Assays Method C (KB, KB-VIN, AS49, HCT-8, PC-3) [K. H. Lee et. al. Planta Med. 54, 308-312 (1998), Monk A et. al. J. Natl. Cancer Inst. 83, 757-766 (1991).] The cell lines included epidermoid caninoma of the nasopharynx (KB), p-gp-expressing epidermoid caninoma of the nasopharynx (KB-VIN), lung carcinoma (A-549), ileocecal carinoma (HCT-8) and prostate cancer (PC-3) cell lines.

[4] = test system: lung carcinoma (A-549); experiment: Cytotoxicity Assays Method C, A-549; assay type: cell-based; settings: Homo sapiens, A549, 72 h, read-out: IC50 A549
[5] = test system: ileocecal carcinoma (HCT-8); experiment: Cytotoxicity Assays Method C, HCT-8; assay type: cell-based; settings: Homo sapiens, HCT-8, 72 h, read-out: IC50 HCT-8
[6] = test system: prostate cancer (PC-3); experiment: Cytotoxicity Assays Method C, PC-3; assay type: cell-based; settings: for IC50: 72 h, read-out: IC50 PC-3
[7] = Cytotoxicity Assays Method A (alamarBlue anti-proliferative assay), HUVEC; assay type: cell-based; settings: human, HUVEC (human umbilical vein endothelial cells), 72-hour incubation, alamarBlue
From the text: (§1) Cytotoxicity Assays Method A (HUVEC, MCF-7, HT-29, Hep 3B and NCl-H460) [S. A. Ahmed, R. M. Gogal Jr., and J. E. Walsh, Journal of Immunological Methods 170: 211-224, (1994): M. R. Boyd, Status of the NCl preclinical antitumor drug discovery screen. (Published by J. B. Lippincoft Company, Philadelphia, Pa. 19105, USA) Principles & Practices of Oncology Updates 3 # 10: 1-12, (1989); M. R. Boyd, et al. Data display and analysis strategies for the NCl disease-oriented in vitro antitumor drug screen. In: Cytotoxic anti-cancer drugs: models and concepts for drug discovery and development. Boston: Kluwer Academic, Pages; 11-34, (1992)]
(§2) The test compounds were dissolved in 100% DMSO and then diluted with sterile distilled water to obtain initial working solutions of 20000, 2000, 200, 20 and 2 μM in 80% DMSO. A 200 fold dilution was further made in culture media to generate final assay concentrations of 100, 10, 1, 0.1 and 0.01 μM in 0.4% DMSO.
(§3) Aliquots of 100 μl of cell suspension (about 1.5-3.0×10^3/well) were placed in 96-well microtiter plates in an atmosphere of 5% CO2 at 37° C. After 24 hours, 100 μl of growth medium and 1 μl of test solution or vehicle (80% DMSO) were added respectively per well in duplicate for an additional 72-hour incubation. Thus, the final concentration of DMSO was 0.4%. The test compounds, IIa-1, IIb-1 and VII-1 were evaluated at concentrations of 100, 10, 1, 0.1 and 0.01 μM. At the end of incubation, 20 μl of alamarBlue 90% reagent was added to each well for another 6-hour incubation before detection of cell viability by fluorescent intensity. Fluorescent intensity was measured using a Spectraflour Plus plate reader with excitation at 530 nm and emission at 590 nm.
(§4) The measured results was calculated by the following formula: PG(%)=100×(Mean Ftest−Mean Ftime0)/(Mean Fctrl−Mean Ftime0)] If(Mean Ftest−Mean Ftime0)<0, then PG(%)=100×(Mean Ftest−Mean Ftime0)/(Mean Ftime0−Mean Fblank) wherein PG represents percent growth;
(§5) A decrease of 50% or more (≧50%) in fluorescent intensity relative to the vehicle-treated control indicates significant cytostatic or cytotoxic activity, and semi-quantitative values for IC50, TGI and LC50 were then determined by nonlinear regression using GraphPad Prism (GraphPad Software, USA).
(§6) IC50 (50% Inhibition Concentration); Test compound concentration where the increase from times in the number or mass of treated cells was only 50% as much as the corresponding increase in the vehicle-control at the end of experiment.
(§7) TGI (Total Growth Inhibition): Test compound concentration where the number or mass of treated cells at the end of experiment was equal to that at time0.
(§8) LC50 (50% Lethal Concentration): Test compound concentration where the number or mass of treated cells at the end of experiment was half that at time.
(§9) The assays were used to detect changes in cell proliferation based on the ability of viable cells to cause alamarBlue to change from its oxidized to a reduced form. With the results obtained from the alamarBlue reaction, cell proliferation can be quantified and metabolic activity of viable cell can be examined.
(§10) The succinate derivatives of compounds IIa-1, IIb-1 and VII-1 were tested for possible effect on the proliferation of four human tumor cell lines ˜MCF-7 (breast), HT-29 (colon), Hep3B (liver), and NCl—H 460 (lung) as well as one human umbilical vein endothelial cell (HUVEC) at assay concentration from 0.01 to 100 μM, through serial 10-fold dilution.

[8] = test system: HUVEC; experiment: as above; assay type: cell-based
From the text: as §1, §2, §3, §4, §5, §6, §7, §8, §9, §10

[9] = test system: MCF-7; experiment: Cytotoxicity Assays Method A (alamarBlue anti-proliferative assay), MCF-7; assay type: cell-based
From the text: as §1, §2, §3, §4, §5, §6, §7, §8, §9, §10

[10] = test system: HT-29; experiment: Cytotoxicity Assays Method A (alamarBlue anti-proliferative assay), HT-29; assay type: cell-based
From the text: as §1, §2, §3, §4, §5, §6, §7, §8, §9, §10

[11] = test system: Hep 3B; experiment: Cytotoxicity Assays Method A (alamarBlue anti-proliferative assay), Hep 3B; assay type: cell-based
From the text: as §1, §2, §3, §4, §5, §6, §7, §8, §9, §10

[12] = test system: NCI-H460; experiment: Cytotoxicity Assays Method A (alamarBlue anti-proliferative assay), NCI-H460; assay type: cell-based
From the text: as §1, §2, §3, §4, §5, §6, §7, §8, §9, §10

Structure (SMILES): O=C(O)CCCC(=O)OCc1cc2c(s1)C(=O)c1sccc1C2=O [IIa-2, Mono-[1-(4,8-dioxo-4,8-dihydrobenzo[1,2-b:5,4-b′]dithiophen-2-yl)-methyl]pentanedioate]
- IC50 ([1]; 96 h, HL-60, MTT, treatment for 4 days): 700 nM
- IC50 [2]: 2220 nM
- IC50 ([3]; Homo sapiens, KBVIN, 72 h): 1390 nM
- IC50 [4]: 2080 nM
- IC50 [5]: 1660 nM
- IC50 [6]: 750 nM
- melting point: 220 °C (dec.)

Structure (SMILES): CC(OC(=O)CCC(=O)O)c1cc2c(s1)C(=O)c1ccsc1C2=O (stereo not drawn) [VII-1, Mono-[1-(4,8-dioxo-4,8-dihydroxybenzo[1,2-b;4,5-b′]dithiophen-2-yl)-ethyl]succinate]
- LC50 (50% lethal concentration) at 72 h [7]: > 100000 nM
- TGI (Total growth Inhibition) ([8]; 72-hour incubation, alamarBlue): 57000 nM
- IC50 ([8]; Homo sapiens, 72 h, read-out: IC50 (50% Inhibition Concentration)): 11000 nM
- IC50 ([9]; Homo sapiens, MCF7, 72 h, read-out: IC50 (50% Inhibition Concentration)): 960 nM
- CC50 ([9]; Homo sapiens, MCF7, MCF-7, 72-hour incubation, alamarBlue, read-out: LC50 (50% Lethal Concentration)): 31000 nM
- TGI (Total growth Inhibition) ([9]; MCF-7, 72-hour incubation, alamarBlue): 5500 nM
- cytotoxicity against MCF-7 (in words) ([9]; MCF-7, summary of Table 1): significant cytotoxicity
- TGI (Total growth Inhibition) ([10]; HT-29, 72-hour incubation, alamarBlue): 38000 nM
- activity against HT-29 (in words) ([10]; HT-29, summary of Table 1): moderate activity
- IC50 ([10]; Homo sapiens, HT-29, 72 h, read-out: IC50 (50% Inhibition Concentration)): 4500 nM
- LC50 (50% lethal concentration) ([10]; Homo sapiens, HT-29, 72-hour incubation, alamarBlue): > 100000 nM
- cytotoxicity against Hep3B (in words) ([11]; Hep3B, summary of Table 1): significant cytotoxicity
- TGI (Total growth Inhibition) ([11]; Hep-3B, 72-hour incubation, alamarBlue): 1900 nM
- IC50 ([11]; Homo sapiens, Hep3B, 72 h, read-out: IC50 (50% Inhibition Concentration)): 1000 nM
- CC50 ([11]; Homo sapiens, Hep3B, Hep-3B, 72-hour incubation, alamarBlue, read-out: LC50 (50% Lethal Concentration)): 3400 nM
- IC50 ([12]; Homo sapiens, NCI-H460, 72 h, read-out: IC50 (50% Inhibition Concentration)): 410 nM
- CC50 ([12]; Homo sapiens, NCI-H460, 72-hour incubation, alamarBlue, read-out: LC50 (50% Lethal Concentration)): 3000 nM
- TGI (Total growth Inhibition) ([12]; NCI-H460, 72-hour incubation, alamarBlue): 1100 nM
- IC50 ([1]; HL-60, 96 h): 260 nM
- IC50 [2]: 190 nM
- IC50 [3]: 220 nM
- activity against the MDR cell line KB-VIN (in words) ([3]; summary of Table 3): potent activity
- IC50 [4]: 470 nM
- IC50 [5]: 420 nM
- IC50 [6]: 160 nM
- activity against the androgen-insensitive prostate cancer cell line PC-3 (in words) ([6]; PC-3, summary of Table 3): potent activity
